The record followed here is patent US9701655B2, “Functionalised benzopyran compounds and use thereof” (NOVOGEN LIMITED, priority 2014, dated 2017).

Some results are limits rather than exact numbers.

Common to all, as to format: cell-based
The test system of one assay is HT-29. The assay can be described thus: Proliferation of somatic cancer cells (cell-titre luminescence), HT-29. To be noted: Homo sapiens; Colorectal HT-29, 72 hrs. On the procedure:
(§1) The ability of selected compounds to inhibit the proliferation of cancer cells representative of melanoma, non-small cell lung cancer, colorectal cancer, breast cancer (Estogen Receptor negative (ER−ve, TNBC−R−ve, Progesterone Receptor negative and negative for EGFR amplification), prostate cancer, liver cancer, ovarian cancer, pancreatic cancer and brain cancer was studied. A pre-determined number of cells as calculated from cell growth assays for each of the cell lines employed were seeded into their respective culture mediums (using ATCC culture parameters—http://wwvv.atcc.org) and cultured for 24 hrs at 37° C. and 5% CO2 in 96-well culture plates. Once attached, each cell line was then exposed to various concentrations of each respective analogue (30, 3, 0.3 and 0.03 μM), cultured for a further 72 hrs and exposed to cell-titre luminescent reagent (100μ/well) for a further 30 mins). Luminescence was captured using an EnVision multilabel reader and the data for each analogue concentration compared against control. Semi-log plots of Percent of Control versus concentration were prepared and IC50 determined using linear regression analysis. In Table 6, compounds Comp 1, Comp 2 and Comp 3 are comparative compounds having the following structures: […]

The subject of a further assay is SK-Mel-28. The assay can be described thus: Proliferation of somatic cancer cells (cell-titre luminescence), SK-Mel-28. To be noted: Homo sapiens; Melanoma SK-Mel-28, 72 hrs. On the procedure:
as §1

In the next assay the test system is PC3. As to the kind of experiment: Proliferation of somatic cancer cells (cell-titre luminescence), PC3. To be noted: Homo sapiens, PC-3, 72 h, Prostate PC3, 72 hrs. On the procedure: as §1
For the next assay, the system named is DU145. As to the kind of experiment: Proliferation of somatic cancer cells (cell-titre luminescence), DU145. To be noted: Homo sapiens, DU-145, 72 h, Prostate DU145, 72 hrs. On the procedure:
as §1

The next assay relates to MCF-7. As to the kind of experiment: Proliferation of somatic cancer cells (cell-titre luminescence), MCF-7. To be noted: Homo sapiens, MCF7; Breast MCF-7, 72 hrs. The procedure:
as §1

In another assay the test system is MDA-MB-231. The assay can be described thus: Proliferation of somatic cancer cells (cell-titre luminescence), MDA-MB-231. To be noted: Homo sapiens, MDA-MB-231, 72 h, Breast MDA-MB-231, 72 hrs. On the procedure:
as §1

A further assay relates to A549. As to the kind of experiment: Proliferation of somatic cancer cells (cell-titre luminescence), A549. To be noted: Homo sapiens, A549, 72 h, Lung (NSCLC) A549, 72 hrs. On the procedure: as §1
The test system of another assay is HepG2. The assay can be described thus: Proliferation of somatic cancer cells (cell-titre luminescence), HepG2. To be noted: Homo sapiens, HepG2, 72 h, Liver HepG2, 72 hrs. On the procedure: as §1

The term IC50 denotes the midpoint of a concentration-inhibition curve. The low end stands for inhibition by little substance, the high end for a need for much substance. On to `COc1cc(C2COc3c(ccc(O)c3C)C2c2ccc(N)cc2)cc(OC)c1O` (stereo not shown) [Compound 21, 4-(4-aminophenyl)-3-(4-hydroxy-3,5-dimethoxyphenyl)-8-methylchroman-7-ol], for which the 50% inhibitory concentration (IC50) in the assay with HT-29 was 3.02 µM; in the assay with SK-Mel-28 it was 0.7 µM; in the assay on PC3 it was 0.42 µM; in the assay with DU145, 0.64 µM; with MCF-7, 0.6 µM; in the assay with MDA-MB-231, 5.67 µM. For the same compound, the IC50 was found to be 2.66 µM with A549 and 0.35 µM with HepG2.
For the compound `COc1cc(C2COc3cc(O)c(C)cc3C2c2ccc(O)cc2)cc(OC)c1O` (stereo not shown) [Compound 35, 4-(4-hydroxyphenyl)-3-(4-hydroxy-3,5-dimethoxyphenyl)-6-methylchroman-7-ol], the IC50 was 5.79 µM in the assay on HT-29; 2.37 µM in the assay with SK-Mel-28; 1.03 µM in the assay with PC3; 0.77 µM with DU145; 4.2 µM in the assay on MCF-7; 9.89 µM in the assay with MDA-MB-231. The IC50 stood at 4.25 µM with A549 and 1.06 µM in the assay with HepG2.
As for `CCc1c(O)ccc2c1OCC(c1cc(OC)c(O)c(OC)c1)C2c1ccc(O)cc1` (stereo not shown) [Compound 34, 4-(4-hydroxyphenyl)-3-(4-hydroxy-3,5-dimethoxyphenyl)-8-ethylchroman-7-ol], the IC50 was determined as 2.07 µM in the assay on HT-29; 1.38 µM in the assay with SK-Mel-28; 1.07 µM in the assay on PC3; 0.63 µM in the assay on DU145; 1.5 µM in the assay on MCF-7; 3.77 µM with MDA-MB-231. Besides, the IC50 is 1.7 µM in the assay with A549 and 0.47 µM in the assay on HepG2.
With `CCNc1ccc(C2c3ccc(O)c(C)c3OCC2c2cc(OC)c(O)c(OC)c2)cc1` (stereo not shown) [Compound 22, 4-(4-ethylaminophenyl)-3-(4-hydroxy-3,5-dimethoxyphenyl)-8-methylchroman-7-ol], the IC50 amounted to 2.42 µM with HT-29; 1.22 µM in the assay on SK-Mel-28; 0.62 µM with PC3; 0.45 µM in the assay on DU145; 1.6 µM in the assay with MCF-7; 12.6 µM in the assay on MDA-MB-231. In addition, the figures for the IC50 with A549 and with HepG2 were 8.87 µM and 0.67 µM, respectively.
Regarding `CCc1cc2c(c(C)c1O)OCC(c1cc(OC)c(O)c(OC)c1)C2c1ccc(O)cc1` (stereo not shown) [Compound 33, 4-(4-hydroxyphenyl)-3-(4-hydroxy-3,5-dimethoxyphenyl)-6-ethyl-8-methylchroman-7-ol], the IC50 with HT-29 was 2.38 µM; with SK-Mel-28, 0.43 µM; with PC3 it was 0.34 µM; in the assay on DU145 it was 0.39 µM; in the assay on MCF-7, 0.5 µM; in the assay with MDA-MB-231, 5.29 µM. In addition, the IC50 with A549 came out at 3.71 µM; with HepG2, 0.1 µM.
Regarding `COc1cc(C2COc3c(ccc(O)c3C)C2c2ccc3c(c2)OCO3)cc(OC)c1O` (stereo not shown) [Compound 32, 4-(3,4-methylenedioxyphenyl)-3-(4-hydroxy-3,5-dimethoxyphenyl)-8-methylchroman-7-ol], the IC50 with HT-29 is 3.56 µM; in the assay on SK-Mel-28, 2.06 µM; in the assay with PC3, 1.42 µM; in the assay with DU145 it was 0.95 µM; in the assay on MCF-7, 2.2 µM; in the assay on MDA-MB-231, 25.3 µM. In addition, the IC50 in the assay with A549 worked out at 11.8 µM; with HepG2, 1.21 µM.
Consider `CCc1cc2c(c(C)c1O)OCC(c1cc(C)c(O)c(C)c1)=C2c1ccc(O)c(C)c1` [Compound 38, 4-(3-methyl-4-hydroxyphenyl)-6-ethyl-8-methyl-3-(4-hydroxy-3,5-dimethylphenyl)-2H-chromen-7-ol], for which the IC50 in the assay with SK-Mel-28 was greater than 30 µM; with PC3, 1.4 µM; in the assay with DU145, 5.51 µM; in the assay with MDA-MB-231, 23.1 µM; with A549 it was 2.6 µM.
For `CCc1cc2c(c(C)c1O)OCC(c1cc(C)c(O)c(C)c1)=C2c1ccc(O)cc1F` [Compound 40, 4-(2-fluoro-4-hydroxyphenyl)-6-ethyl-8-methyl-3-(4-hydroxy-3,5-dimethylphenyl)-2H-chromen-7-ol], the IC50 in the assay on SK-Mel-28 is greater than 30 µM; in the assay with PC3 it was 1.31 µM; in the assay on DU145, 3.02 µM; in the assay on MDA-MB-231, 14.1 µM; in the assay with A549, 1.91 µM.
